Series [1] concerns HLA-mismatched PBL cocultured with LN-308 cells. Put plainly: Cytokine release by immune effector cells, Elispot. The series is classed as cell-based, human. The settings on record: 1 μM. As to the method:
FIG. 3. Modulation of allogeneic anti-glioma immune responses by Compound No. 79 involves TGF-β antagonism. A. The lytic activity against LN-308 targets of PBL (squares) or purified T cells (triangles) preincubated with irradiated LN-308 cells in the absence (open symbols) or presence (filled symbols) of Compound No. 79 (1 μM) was determined in ^51Cr release assays. B-D. PBL were cultured in the absence (left) or presence (right) of irradiated LN-308 cells for 5 days. The cultures contained Compound No. 79 (1 μM) (filled bars) or not (open bars). Subsequently these effector cells were cocultured for 24 h with fresh non-irradiated LN-308 cells in the absence of Compound No. 79. The release of IFN-γ (B), TNF-α (C) or IL-10 (D) was assessed by Elispot assay. Data are expressed as cytokine-producing cells per 5×10^5 effector cells (n=3, *p<0.05, **p<0.01, t-test, effect of Compound No. 79). […]
IL-10, TNF-α and IFN-γ release by immune effector cells was assessed by Elispot assay in a multiscreen-HA 96 well plate (Millipore, Eschborn, Germany), coated with corresponding anti-human capture antibodies (Becton Dickinson). […] Spots were counted on an Elispot reader system (AID, Straβberg, Germany). […]

The next series relates to SMA-560 glioma cells. Put plainly: Flow cytometric cell cycle analysis. The series is classed as cell-based, murine. The following applies: 0.01, 0.1 or 1 μM, 48 h, data not shown. On the procedure: The adherent glioma cells were detached nonenzymatically using cell dissociation solution (Sigma). Cell cycle analysis was performed by using fixed and permeabilized glioma cells (70% ethanol). RNA was digested with RNase A (Life Technologies, Inc.). DNA was stained with propidium iodide (50 μg/ml).
For orientation: In flow cytometry, cells or beads pass a laser one at a time.

Series [2] deals with SMA-560 intracranial experimental glioma. The experiment in a line: Syngeneic SMA-560 intracranial glioma in VM/Dk mice. The class given is in vivo. On the procedure:
FIG. 4. […] A. VM/Dk mice received an intracranial injection of 5×10^3 SMA-560 cells. […] B. The animals were treated as in A, but were sacrificed on day 10 to obtain splenocytes. IFN-γ release at 24 h was assessed by Elispot. Data are expressed as cytokine-producing cells per 10^6 effector cells. C. The splenocytes were stimulated with IL-2 for 10 days to generate LAK cells.
VM/Dk mice were purchased from the TSE Research Center (Berkshire, UK). Mice of 6-12 weeks of age were used in all experiments. The experiments were performed according to the German animal protection law. Groups of 7-8 mice were anesthesized before all intracranial procedures and placed in a stereotaxic fixation device (Stoelting, Wood Dale, Ill.). A burr hole was drilled in the skull 2 mm lateral to the bregma. The needle of a Hamilton syringe (Hamilton, Darmstadt, Germany) was introduced to a depth of 3 mm. […] The mice were observed daily and, in the survival experiments, sacrified when developing neurological symptoms, or sacrificed as indicated in the other experiments.

A further series has as its system LN-308 targets. Put plainly: Polyclonal NK cell lytic activity, 51Cr release. The series is classed as cell-based, human. As to the method: FIG. 3. Modulation of allogeneic anti-glioma immune responses by Compound No. 79 involves TGF-β antagonism. A. The lytic activity against LN-308 targets of PBL (squares) or purified T cells (triangles) preincubated with irradiated LN-308 cells in the absence (open symbols) or presence (filled symbols) of Compound No. 79 (1 μM) was determined in ^51Cr release assays. B-D. PBL were cultured in the absence (left) or presence (right) of irradiated LN-308 cells for 5 days. The cultures contained Compound No. 79 (1 μM) (filled bars) or not (open bars). Subsequently these effector cells were cocultured for 24 h with fresh non-irradiated LN-308 cells in the absence of Compound No. 79. The release of IFN-γ (B), TNF-α (C) or IL-10 (D) was assessed by Elispot assay. Data are expressed as cytokine-producing cells per 5×10^5 effector cells (n=3, *p<0.05, **p<0.01, t-test, effect of Compound No. 79). E, F. Polyclonal NK cell cultures were exposed to TGF-β1 (5 ng/ml) (E) or diluted (1:4) glioma cell SN (F), without or with Compound No. 79 (1 μM), for 48 h and subsequently used as effectors in ^51Cr release assays using LN-308 cells as targets. Compound No. 79 alone or TGF-β antibody alone had no effect on NK cell activity in these assays (data not shown).
Human PBMC were isolated from healthy donors by density gradient centrifugation (Biocoll, Biochrom KG). Monocytes were depleted by adhesion and differential centrifugation to obtain peripheral blood lymphocytes (PBL). To obtain purified T cells, the PBMC were depleted of B cells and monocytes using LymphoKwik T™ reagent (One Lambda Inc., Canoga Park, Calif.). […]
HLA-A2-mismatched PBL or T cells (107/25 cm2 flask) were cocultured with 106 irradiated (30 Gy) glioma cells for 5 days. […] The maximum 51Cr release was determined by addition of NP40 (1%). After 4 h the supernatants were transferred to a Luma-PlateTM-96 (Packard, Dreieich, Germany) and measured. The percentage of 51Cr release was calculated as follows: 100×([experimental release−spontaneous release]/[maximum release−spontaneous release]).

The next series has as its system glioma cells. Put plainly: Viability of glioma cells in response to serum deprivation. The class given is cell-based. The following applies: data not shown. As to the method: The glioma cells and CCL64 cells were maintained in DMEM supplemented with 2 mM L-glutamine (Gibco Life Technologies, Paisley, UK), 10% FCS (Biochrom KG, Berlin, Germany) and penicillin (100 IU/ml)/streptomycin (100 μg/ml) (Gibco). Growth and viability of the glioma cells was examined by crystal violet, LDH release (Roche, Mannheim, Germany) and trypan blue dye exclusion assays. To assess clonogenicity, 500 SMA-560 cells were seeded into 6 well plates (9.4 cm^2). After formation of visible cell formations, colonies>20 cells were counted.

In the case of `Fc1ccc(Cl)cc1-c1nc(Nc2ccncc2)c2nccnc2n1` [Compound No. 79], the IFN-γ release result in series [1] (PBL primed in presence of LN-308 cells, FIG. 3B) is “restored the IFN-γ release to levels comparable to PBL pre-cultured in the absence of LN-308 cells”. In addition, the IL-10 release result in series [1] (unstimulated and glioma cell-primed cultures, FIG. 3D) is “reduced”. Further, the cell cycle arrest entry with SMA-560 glioma cells is “no specific type of cell cycle arrest”. Further, the “development of neurological symptoms” value in series [2] (1 mg/ml in drinking water from day 3, data not shown) was “delayed”. In addition, the “survival rate at 30 days” value in series [2] (1 mg/ml in drinking water from day 3, control 0%) is reported as 29%. Also, the median survival in series [2] (1 mg/ml in drinking water from day 3, vehicle 18) is reported as 23 days. In addition, the mean survival in series [2] (1 mg/ml in drinking water from day 3, vehicle 18.6±2.1, p=0.004) turned out to be 25.1 ± 6.5 days. Besides, in series [2] (drinking water 1 mg/ml), the dose-limiting toxicity result is recorded as “No dose-limiting toxicity has been reached”. For the same compound, the “TGF-β-mediated inhibition of NK cell lytic activity” value in the series on LN-308 targets (TGF-β1 5 ng/ml, 1 μM, 48 h, FIG. 3E) is given as “relieved”. The “inhibition of NK cell activity by LN-308 cell supernatants” value in the series with LN-308 targets (supernatant diluted 1:4, 48 h, FIG. 3F) was “blocked”. Besides, the “NK cell activity, agent alone” value in the series with LN-308 targets (without TGF-β or supernatant, data not shown) was “no effect”. Also, in the series with glioma cells, the “viability in response to serum deprivation” value is reported as “did not modulate”.

For the origin of these results see US20050245508A1, “Treatment of malignant gliomas with TGF-beta inhibitors” (SCIOS, Inc., priority 2003, published 2005).
